± gives the expanded uncertainty stated by the source.
Test: xn = mol fraction of the nth substance listed
Settings: 100 kPa, Liquid; for viscosity: Falling or rolling sphere viscometry; for mass density: Vibrating tube method

CCCCCCCCCCCC(=O)OC [methyl dodecanoate] + CC1CCCCC1
Settings | mass density [kg/m3] | viscosity [mPa·s]
293.15 K, x2 = 0 | 869.3 ± 1.7 | 3.151 ± 0.067
293.15 K, x2 = 0.1 | 863.68 ± 1.7 | 2.838 ± 0.061
293.15 K, x2 = 0.2 | 857.47 ± 1.7 | 2.545 ± 0.054
293.15 K, x2 = 0.3 | 850.62 ± 1.7 | 2.264 ± 0.048
293.15 K, x2 = 0.4001 | 842.9 ± 1.7 | 2 ± 0.043
293.15 K, x2 = 0.5001 | 834.34 ± 1.7 | 1.743 ± 0.037
293.15 K, x2 = 0.6 | 824.66 ± 1.6 | 1.501 ± 0.032
293.15 K, x2 = 0.6999 | 813.62 ± 1.6 | 1.28 ± 0.027
293.15 K, x2 = 0.8 | 801 ± 1.6 | 1.071 ± 0.023
293.15 K, x2 = 0.8999 | 786.46 ± 1.6 | 0.887 ± 0.019
298.15 K, x2 = 0 | 865.39 ± 1.7 | 2.792 ± 0.06
298.15 K, x2 = 0.1 | 859.76 ± 1.7 | 2.527 ± 0.054
298.15 K, x2 = 0.2 | 853.54 ± 1.7 | 2.28 ± 0.049
298.15 K, x2 = 0.3 | 846.68 ± 1.7 | 2.041 ± 0.044
298.15 K, x2 = 0.4001 | 838.94 ± 1.7 | 1.811 ± 0.039
298.15 K, x2 = 0.5001 | 830.36 ± 1.7 | 1.587 ± 0.034
298.15 K, x2 = 0.6 | 820.65 ± 1.6 | 1.373 ± 0.029
298.15 K, x2 = 0.6999 | 809.56 ± 1.6 | 1.177 ± 0.025
298.15 K, x2 = 0.8 | 796.88 ± 1.6 | 0.992 ± 0.021
298.15 K, x2 = 0.8999 | 782.25 ± 1.6 | 0.825 ± 0.018
303.15 K, x2 = 0 | 861.46 ± 1.7 | 2.504 ± 0.054
303.15 K, x2 = 0.1 | 855.83 ± 1.7 | 2.279 ± 0.049
303.15 K, x2 = 0.2 | 849.6 ± 1.7 | 2.06 ± 0.044
303.15 K, x2 = 0.3 | 842.72 ± 1.7 | 1.85 ± 0.04
303.15 K, x2 = 0.4001 | 834.97 ± 1.7 | 1.646 ± 0.035
303.15 K, x2 = 0.5001 | 826.36 ± 1.7 | 1.448 ± 0.031
303.15 K, x2 = 0.6 | 816.61 ± 1.6 | 1.261 ± 0.027
303.15 K, x2 = 0.6999 | 805.48 ± 1.6 | 1.087 ± 0.023
303.15 K, x2 = 0.8 | 792.75 ± 1.6 | 0.919 ± 0.02
303.15 K, x2 = 0.8999 | 778.03 ± 1.6 | 0.77 ± 0.016
308.15 K, x2 = 0 | 857.53 ± 1.7 | 2.263 ± 0.048
308.15 K, x2 = 0.1 | 851.9 ± 1.7 | 2.064 ± 0.044
308.15 K, x2 = 0.2 | 845.67 ± 1.7 | 1.876 ± 0.04
308.15 K, x2 = 0.3 | 838.76 ± 1.7 | 1.693 ± 0.036
308.15 K, x2 = 0.4001 | 830.99 ± 1.7 | 1.512 ± 0.032
308.15 K, x2 = 0.5001 | 822.36 ± 1.6 | 1.339 ± 0.029
308.15 K, x2 = 0.6 | 812.57 ± 1.6 | 1.168 ± 0.025
308.15 K, x2 = 0.6999 | 801.4 ± 1.6 | 1.007 ± 0.022
308.15 K, x2 = 0.8 | 788.6 ± 1.6 | 0.858 ± 0.018
308.15 K, x2 = 0.8999 | 773.79 ± 1.6 | 0.722 ± 0.015
313.15 K, x2 = 0 | 853.61 ± 1.7 | 2.049 ± 0.044
313.15 K, x2 = 0.1 | 847.96 ± 1.7 | 1.877 ± 0.04
313.15 K, x2 = 0.2 | 841.71 ± 1.7 | 1.714 ± 0.037
313.15 K, x2 = 0.3 | 834.79 ± 1.7 | 1.552 ± 0.033
313.15 K, x2 = 0.4001 | 827.01 ± 1.7 | 1.393 ± 0.03
313.15 K, x2 = 0.5001 | 818.35 ± 1.6 | 1.237 ± 0.026
313.15 K, x2 = 0.6 | 808.52 ± 1.6 | 1.086 ± 0.023
313.15 K, x2 = 0.6999 | 797.31 ± 1.6 | 0.937 ± 0.02
313.15 K, x2 = 0.8 | 784.44 ± 1.6 | 0.801 ± 0.017
313.15 K, x2 = 0.8999 | 769.54 ± 1.6 | 0.676 ± 0.014
318.15 K, x2 = 0 | 849.69 ± 1.7 | 1.875 ± 0.04
318.15 K, x2 = 0.1 | 844.02 ± 1.7 | 1.725 ± 0.037
318.15 K, x2 = 0.2 | 837.77 ± 1.7 | 1.581 ± 0.034
318.15 K, x2 = 0.3 | 830.83 ± 1.7 | 1.437 ± 0.031
318.15 K, x2 = 0.4001 | 823.02 ± 1.6 | 1.294 ± 0.028
318.15 K, x2 = 0.5001 | 814.32 ± 1.6 | 1.151 ± 0.025
318.15 K, x2 = 0.6 | 804.45 ± 1.6 | 1.012 ± 0.022
318.15 K, x2 = 0.6999 | 793.18 ± 1.6 | 0.879 ± 0.019
318.15 K, x2 = 0.8 | 780.26 ± 1.6 | 0.754 ± 0.016
318.15 K, x2 = 0.8999 | 765.28 ± 1.5 | 0.638 ± 0.014
323.15 K, x2 = 0 | 845.76 ± 1.7 | 1.729 ± 0.037
323.15 K, x2 = 0.1 | 840.08 ± 1.7 | 1.592 ± 0.034
323.15 K, x2 = 0.2 | 833.81 ± 1.7 | 1.461 ± 0.031
323.15 K, x2 = 0.3 | 826.86 ± 1.7 | 1.332 ± 0.028
323.15 K, x2 = 0.4001 | 819.02 ± 1.6 | 1.202 ± 0.026
323.15 K, x2 = 0.5001 | 810.28 ± 1.6 | 1.073 ± 0.023
323.15 K, x2 = 0.6 | 800.37 ± 1.6 | 0.946 ± 0.02
323.15 K, x2 = 0.6999 | 789.06 ± 1.6 | 0.826 ± 0.018
323.15 K, x2 = 0.8 | 776.07 ± 1.6 | 0.711 ± 0.015
323.15 K, x2 = 0.8999 | 761 ± 1.5 | 0.603 ± 0.013

Reference: the NIST ThermoML archive (doi:10.1016/j.jct.2019.05.021)
